Laboratory results: ChEMBL document CHEMBL1155912, “Synthesis of 6- or 4-functionalized indoles via a reductive cyclization approach and evaluation as aromatase inhibitors” (Bioorg Med Chem Lett, 2008)

Molecular target: T1, CYP17 (steroid 17-alpha-hydroxylase/17,20 lyase) (Homo sapiens, UniProt P05093)
T1 sequence (P05093 whole entry): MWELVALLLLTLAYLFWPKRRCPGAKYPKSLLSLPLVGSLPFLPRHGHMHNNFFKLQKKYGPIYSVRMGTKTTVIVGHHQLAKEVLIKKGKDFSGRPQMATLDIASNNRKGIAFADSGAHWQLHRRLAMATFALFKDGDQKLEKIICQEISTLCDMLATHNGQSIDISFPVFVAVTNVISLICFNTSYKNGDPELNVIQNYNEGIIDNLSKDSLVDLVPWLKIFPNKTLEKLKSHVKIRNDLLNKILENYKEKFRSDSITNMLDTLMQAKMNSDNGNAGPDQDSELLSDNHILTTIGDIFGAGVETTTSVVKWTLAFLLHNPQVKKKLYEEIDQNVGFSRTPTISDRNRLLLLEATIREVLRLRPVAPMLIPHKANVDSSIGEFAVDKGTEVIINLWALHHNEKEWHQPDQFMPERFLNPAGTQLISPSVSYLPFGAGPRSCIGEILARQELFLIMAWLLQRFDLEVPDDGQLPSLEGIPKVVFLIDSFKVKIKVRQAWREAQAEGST
Experiment: in vitro
Description: Inhibition of human CYP17 expressed in Escherichia coli pJL17/OR coexpressed with rat NADPH-P450 reductase at 2.5 uM

inhibition at 2.5 µM	Structure (SMILES)
< 10%	N#Cc1ccc(C(c2cccc3[nH]ccc23)n2cncn2)cc1 (stereo not drawn)
26%	N#Cc1ccc(C(c2ccc3cc[nH]c3c2)n2ccnc2)cc1 (racemic)
18%	N#Cc1ccc(C(c2cccc3[nH]ccc23)n2ccnc2)cc1 (stereo not drawn)
